Laboratory results from PMC9827864, “In Situ Inhibitor Synthesis and Screening by Fluorescence Polarization: An Efficient Approach for Accelerating Drug Discovery” (Angewandte Chemie (International Ed. in English), 2022).

Experiments:
[1] = Plasma stability (rat); type: in vitro ADME; details: 100 μM
Description: (§1) A structure of PHD2 in complex with Fe and a 2OG competing inhibitor (PDB ID: 4KBZ) was obtained from PDB website. The structure files of protein and compounds for docking were prepared using the Discovery Studio (DS) 2020 software. A water molecule HOH624, conserved in the active binding site of PHD2, was retained during the docking. Residues of PHD2 around the native ligand (radius = 10 Å) were defined as the binding sites for docking. Subsequently, the ligand was removed; the Fe (II) was retained during the docking. Compounds were docked into the binding sites using GOLD 5.1. Docking procedures were performed using the default setting with 100 genetic algorithm (GA) runs of ligands. […]
(§2) 17 was preincubated with microsomes from different species (0.5 mg/mL) at 1 μM for 5 min at 37 °C in 100 mM PBS buffer (pH 7.4). […] The samples were centrifuged at 5000 rpm f or 10 min; the supernatants were then analyzed by HPLC. […]
(§3) Representative compounds and Roxadustat were formulated in normal saline solution. […] Subsequently, these samples were analyzed for reticulocytes in the center for new drug safety evaluation and research of China Pharmaceutical University (ADVIA 2120 hematology system). […]
(§4) Plasma EPO was evaluated using the erythropoietin quantikine ELISA kit for mice (MEP00B). […]
(§5) in normal saline solution. […] Plasma was collected by centrifugation at 3000 rpm, these plasmas were detected by E PO […]

[2] = tested on: plasma EPO in C57BL/6J mice; experiment: In vivo EPO increased assay (plasma EPO ELISA); design: species or system mouse; details: C57BL/6J mice, 10, 20 and 50 mg kg−1 po, 4 hours
Description: as §1, §2, §3, §4, §5

[3] = Metabolic stability in rat liver microsomes; type: in vitro ADME
Description: page 15: SUPPORTING INFORMATION 3. Molecular Modeling A structure of PHD2 in complex with Fe and a 2OG competing inhibitor (PDB ID: 4KBZ) was obtained from PDB website. The structure files of protein and compounds for docking were prepared using the Discovery Studio (DS) 2020 software. A water molecule HOH624, conserved in the active binding site of PHD2, was retained during the docking. Residues of PHD2 around the native ligand […] Subsequently, the ligand was removed; the Fe (II) was retained during the docking. Compounds were docked into the binding sites using GOLD 5.1. Docking procedures were performed using the default setting with 100 genetic algorithm (GA) runs of ligands. […] The samples were centrifuged at 5000 rpm f or 10 min; the supernatants were then analyzed by HPLC. […] Subsequently, these samples were analyzed for reticulocytes in the center for new drug safety evaluation and research of China Pharmaceutical University (ADVIA 2120 hematology system). 5.2 In vivo EPO increased assay Plasma EPO was evaluated using the erythropoietin quantikine ELISA kit for mice (MEP00B). […] Plasma was collected by centrifugation at 3000 rpm, these plasmas were detected by E PO ELISA. […] The hemoglobin of samples was analyzed in the center for new drug safety evaluation and research at China Pharmaceutical University (ADVIA 2120 hematology system). […]

In the case of `O=C(N/N=C/c1cccc(O)c1Cl)c1cnc(-c2cccnn2)[nH]c1=O` [compound 17], the plasma stability [1] is reported as “stable in rat plasma”, the “plasma EPO response” value [2] is reported as “dose‐dependent induction of EPO, similarly to Roxadustat” and the “compound present (remaining) in liver microsomes” value ([3]; after 50 min, 1 μM, 0.5 mg/mL) is reported as greater than 80%. The half-life at 1 μM ([3]; pH 7.4, read-out: t1/2 in liver microsomes) was greater than 1.67 h.
